From PubChem BioAssay AID248 (DTP/NCI, 2004)
“And” between values parts separate entries of the source, which are not always exact repeats. Identical values can stand only once. Toxic doses and inconclusive results are not listed.

System: L1210 leukemia ip in BDF1 mice, survival T/C
Experiment: NCI In Vivo Anticancer Drug Screen. Data for tumor model L1210 Leukemia (intraperitoneal) in B6D2F1 (BDF1) mice
Details: endpoint: mean survival time, higher = longer survival
How it was run: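 Tumor cells were implanted, animals were treated, and survival was followed. The result divides the treated measurement by the vehicle-control measurement.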

[1] = dose: 100.0 mg/kg/injection, schedule: Q01DX001 (ip), vehicle: saline
[2] = dose: 150.0 mg/kg/injection, schedule: Q01DX001 (ip), vehicle: saline
[3] = dose: 200.0 mg/kg/injection, schedule: Q01DX001 (ip), vehicle: saline
[4] = dose: 100.0 mg/kg/injection, schedule: Q01DX009 (ip), vehicle: saline with Tween-80
[5] = dose: 200.0 mg/kg/injection, schedule: Q01DX009 (ip), vehicle: saline with Tween-80
[6] = dose: 100.0 mg/kg/injection, schedule: Q01DX001 (ip), vehicle: Klucel (hydroxypropylcellulose) (HPC)
[7] = dose: 200.0 mg/kg/injection, schedule: Q01DX001 (ip), vehicle: Klucel (hydroxypropylcellulose) (HPC)
[8] = dose: 400.0 mg/kg/injection, schedule: Q01DX001 (ip), vehicle: Klucel (hydroxypropylcellulose) (HPC)
[9] = dose: 75.0 mg/kg/injection, schedule: Q01DX001 (ip), vehicle: saline
[10] = dose: 75.0 mg/kg/injection, schedule: Q01DX001 (ip), vehicle: carboxymethylcellulose (CMC)
[11] = dose: 150.0 mg/kg/injection, schedule: Q01DX001 (ip), vehicle: carboxymethylcellulose (CMC)
[12] = dose: 100.0 mg/kg/injection, schedule: Q04DX003 (ip), vehicle: Klucel (hydroxypropylcellulose) (HPC)
[13] = dose: 200.0 mg/kg/injection, schedule: Q04DX003 (ip), vehicle: Klucel (hydroxypropylcellulose) (HPC)
[14] = dose: 400.0 mg/kg/injection, schedule: Q04DX003 (ip), vehicle: Klucel (hydroxypropylcellulose) (HPC)

O=C1NC(CN2CCCC(O)C2)C(=O)NC1CN1CCCC(O)C1 (stereo not given) (tested in a mixture with another compound) was tested, and the T/C (dose: 25.0 mg/kg/injection, schedule: Q01DX009 (ip), vehicle: water) was 104 % of control, the T/C (dose: 50.0 mg/kg/injection, schedule: Q01DX009 (ip), vehicle: water) was 104 % of control and the T/C (dose: 100.0 mg/kg/injection, schedule: Q01DX009 (ip), vehicle: water) was 112 % of control. For the same compound, the T/C (dose: 200.0 mg/kg/injection, schedule: Q01DX009 (ip), vehicle: water) was 108 % of control.

In the case of OCCS, the T/C (dose: 25.0 mg/kg/injection, schedule: Q01DX001 (ip), vehicle: saline) is reported as 105 % of control, the T/C (dose: 44.0 mg/kg/injection, schedule: Q01DX001 (ip), vehicle: saline) is reported as 95 % of control and the T/C (dose: 50.0 mg/kg/injection, schedule: Q01DX001 (ip), vehicle: saline) is reported as 97 % of control. The T/C (dose: 66.0 mg/kg/injection, schedule: Q01DX001 (ip), vehicle: saline) was 105 % of control, the T/C [1] was 100 % of control and 103 % of control and the T/C [2] was 103 % of control. The T/C [3] was 102 % of control and 105 % of control.

In the case of NS(=O)(=O)c1ccc(NC(=S)NC(=O)c2cccc([N+](=O)[O-])c2)cc1, the T/C (dose: 50.0 mg/kg/injection, schedule: Q04DX003 (ip), vehicle: saline with Tween-80) is reported as 97 % of control, the T/C (dose: 100.0 mg/kg/injection, schedule: Q01DX001 (ip), vehicle: saline with Tween-80) is reported as 96 % of control and the T/C [4] is reported as 96 % of control and 101 % of control. The T/C (dose: 100.0 mg/kg/injection, schedule: Q04DX002 (ip), vehicle: saline with Tween-80) was 90 % of control, the T/C (dose: 100.0 mg/kg/injection, schedule: Q04DX003 (ip), vehicle: saline with Tween-80) was 97 % of control and 105 % of control and the T/C (dose: 200.0 mg/kg/injection, schedule: Q01DX001 (ip), vehicle: saline with Tween-80) was 101 % of control. The T/C [5] was 103 % of control and 89 % of control, the T/C (dose: 200.0 mg/kg/injection, schedule: Q04DX002 (ip), vehicle: saline with Tween-80) was 104 % of control and the T/C (dose: 200.0 mg/kg/injection, schedule: Q04DX003 (ip), vehicle: saline with Tween-80) was 94 % of control. The T/C (dose: 400.0 mg/kg/injection, schedule: Q01DX001 (ip), vehicle: saline with Tween-80) was 86 % of control, the T/C (dose: 400.0 mg/kg/injection, schedule: Q01DX009 (ip), vehicle: saline with Tween-80) was 96 % of control and 89 % of control and the T/C (dose: 400.0 mg/kg/injection, schedule: Q04DX002 (ip), vehicle: saline with Tween-80) was 87 % of control. The T/C (dose: 400.0 mg/kg/injection, schedule: Q04DX003 (ip), vehicle: saline with Tween-80) was 89 % of control.

For CCCCCCCCCCCCCCCCCCN1CCS(=O)CC1, the T/C [6] was 98 % of control, the T/C [7] was 100 % of control and the T/C [8] was 102 % of control.

With COc1cc(NS(C)(=O)=O)ccc1Nc1c2ccc([N+](=O)[O-])cc2nc2c(C)cccc12 the T/C (dose: 0.12 mg/kg/injection, schedule: Q01DX009 (ip), vehicle: saline) was 122 % of control, the T/C (dose: 0.37 mg/kg/injection, schedule: Q04DX003 (ip), vehicle: saline) was 113 % of control and the T/C (dose: 0.62 mg/kg/injection, schedule: Q01DX009 (ip), vehicle: saline) was 112 % of control. The T/C (dose: 0.75 mg/kg/injection, schedule: Q04DX003 (ip), vehicle: saline) was 161 % of control, the T/C (dose: 1.0 mg/kg/injection, schedule: Q01DX009 (ip), vehicle: saline) was 166 % of control and the T/C (dose: 1.25 mg/kg/injection, schedule: Q01DX009 (ip), vehicle: saline) was 121 % of control. For the same compound, the T/C (dose: 1.5 mg/kg/injection, schedule: Q04DX003 (ip), vehicle: saline) was 187 % of control, the T/C (dose: 2.5 mg/kg/injection, schedule: Q01DX009 (ip), vehicle: saline) was 275 % of control and the T/C (dose: 5.0 mg/kg/injection, schedule: Q01DX009 (ip), vehicle: saline) was 111 % of control and 277 % of control. The T/C (dose: 5.0 mg/kg/injection, schedule: Q01DX009 (sc), vehicle: saline) was 165 % of control, the T/C (dose: 7.5 mg/kg/injection, schedule: Q04DX003 (ip), vehicle: saline) was 218 % of control and the T/C (dose: 15.0 mg/kg/injection, schedule: Q01DX001 (ip), vehicle: other) was 162 % of control. For the same compound, the T/C (dose: 15.0 mg/kg/injection, schedule: Q01DX009 (ip), vehicle: saline) was 103 % of control, the T/C (dose: 15.0 mg/kg/injection, schedule: Q04DX003 (ip), vehicle: saline) was 162 % of control and the T/C (dose: 20.0 mg/kg/injection, schedule: Q01DX009 (ip), vehicle: saline) was 86 % of control. The T/C (dose: 33.0 mg/kg/injection, schedule: Q01DX001 (ip), vehicle: other) was 180 % of control, the T/C (dose: 50.0 mg/kg/injection, schedule: Q01DX001 (ip), vehicle: other) was 177 % of control and the T/C (dose: 75.0 mg/kg/injection, schedule: Q01DX001 (ip), vehicle: other) was 159 % of control. The T/C [9] was 203 % of control, the T/C (dose: 113.0 mg/kg/injection, schedule: Q01DX001 (ip), vehicle: other) was 173 % of control and the T/C [2] was 98 % of control.

With CCC1(CC)C(=O)NC(=NCCCC(N)C(=O)O)NC1=O (stereo not given) the T/C [10] was 106 % of control and the T/C [11] was 109 % of control.

For c1ccc(-c2[nH]c(-c3ccccc3)c(-c3ccccc3)c2-c2ccccc2)cc1, the T/C (dose: 50.0 mg/kg/injection, schedule: Q01DX009 (ip), vehicle: saline with Tween-80) was 102 % of control, the T/C [4] was 95 % of control and the T/C [5] was 95 % of control.

CC(C)SSC(C)C was tested, and the T/C [1] was 105 % of control, the T/C [3] was 108 % of control and the T/C (dose: 400.0 mg/kg/injection, schedule: Q01DX001 (ip), vehicle: saline) was 89 % of control.

In the case of CC(NC(=O)C(N)CSC(c1ccccc1)(c1ccccc1)c1ccccc1)C(=O)O (stereo not given), the T/C (dose: 25.0 mg/kg/injection, schedule: Q01DX009 (ip), vehicle: other) is reported as 121 % of control, the T/C (dose: 25.0 mg/kg/injection, schedule: Q01DX009 (ip), vehicle: saline) is reported as 114 % of control and the T/C (dose: 50.0 mg/kg/injection, schedule: Q01DX009 (ip), vehicle: saline) is reported as 122 % of control. The T/C (dose: 100.0 mg/kg/injection, schedule: Q01DX009 (ip), vehicle: saline) was 152 % of control, the T/C (dose: 200.0 mg/kg/injection, schedule: Q01DX009 (ip), vehicle: other) was 88 % of control and the T/C (dose: 200.0 mg/kg/injection, schedule: Q01DX009 (ip), vehicle: saline) was 111 % of control.

In the case of O=C(Nc1ccc(C2=NCCN2)cc1)c1ccc(C(=O)Nc2ccc(C3=NCCN3)cc2)c(O)c1, the T/C (dose: 15.0 mg/kg/injection, schedule: Q01DX Z (ip), vehicle: methylcellulose (MC)) is reported as 96 % of control, the T/C (dose: 30.0 mg/kg/injection, schedule: Q01DX Z (ip), vehicle: methylcellulose (MC)) is reported as 98 % of control and the T/C (dose: 60.0 mg/kg/injection, schedule: Q01DX Z (ip), vehicle: methylcellulose (MC)) is reported as 93 % of control. For the same compound, the T/C (dose: 120.0 mg/kg/injection, schedule: Q01DX Z (ip), vehicle: methylcellulose (MC)) was 93 % of control.

In the case of Nc1ccc(C(=O)O)c(Cl)c1, the T/C [12] is reported as 100 % of control, the T/C [13] is reported as 99 % of control and the T/C [14] is reported as 97 % of control.

With CC(C(O)c1ccccc1)C(O)(C(F)(F)Cl)C(F)(F)Cl (stereo not given) the T/C [6] was 102 % of control, the T/C [12] was 98 % of control and the T/C [7] was 102 % of control. The T/C [13] was 88 % of control, the T/C [8] was 107 % of control and the T/C [14] was 114 % of control.

In the case of C=CCN(c1ccccc1)P(=O)(N1CC1)N1CC1, the T/C (dose: 100.0 mg/kg/injection, schedule: Q01DX001 (ip), vehicle: carboxymethylcellulose (CMC)) is reported as 96 % of control, the T/C (dose: 200.0 mg/kg/injection, schedule: Q01DX001 (ip), vehicle: carboxymethylcellulose (CMC)) is reported as 96 % of control and the T/C (dose: 400.0 mg/kg/injection, schedule: Q01DX001 (ip), vehicle: carboxymethylcellulose (CMC)) is reported as 96 % of control.

For CCCCCCC(C)CCCCCCCCNCCOC(=O)c1ccc(N)cc1 (stereo not given), the T/C [9] was 102 % of control and the T/C [2] was 104 % of control.

For NC(CCCC(N)C(=O)CCl)C(=O)O (stereo not given), the T/C (dose: 25.0 mg/kg/injection, schedule: Q04DX002 (ip), vehicle: saline) was 114 % of control, the T/C (dose: 50.0 mg/kg/injection, schedule: Q04DX002 (ip), vehicle: saline) was 104 % of control and the T/C (dose: 100.0 mg/kg/injection, schedule: Q04DX002 (ip), vehicle: saline) was 107 % of control.

COc1ccc2c(c1)C1(C)CCN(CCc3ccccc3)C(C2)C1C (stereo not given) was tested, and the T/C [10] was 93 % of control and the T/C [11] was 94 % of control.
